# Experimental data from patent publication US7524503B2, “Human cytomegalovirus (HCMV) cytotoxic T cell epitopes, polyepitopes compositions comprising same and diagnostic and prophylactic and therapeutic uses therefor” (priority 2001, dated 2009).
# Read-outs that look alike come from different tables or passages of the source.
# Assays:
# Format in all cases: cell-based, human
# [1] = tested on: PBMC from healthy HCMV seropositive donors; experiment: IFN-γ ELISPOT assay; settings: peptide 10 μg/ml
# Description: ELISPOT assay was used to assess whether stimulation of PBMC from a large panel of seropositive donors with HCMV peptides could induce IFN-γ expression in T cells. Briefly, a 96-well nitrocellulose plate (Multiscreen, Millipore) was coated overnight at 4° C. with mouse monoclonal antibody anti-IFN-γ IgG1 (10 μg/ml; Mabtech Nacka, Sweden). The plate was then washed six times in Phosphate Buffered Saline (PBS) and blocked for 1 hour at 37° C. with PBS supplemented with 5% FCS. The blocking solution was removed and PBMC from healthy HCMV seropositive donors were added at a concentration of 2.5×10^5 cells per well in growth medium. These cells were incubated for 18 h at 37° C. in a 5% CO2 atmosphere in the presence of synthetic peptides from HCMV antigens (10 μg/ml). After incubation, the plate was washed three times with PBS supplemented with 0.05% Tween, followed by three washes with PBS alone. Biotinylated anti-IFN-γ (Mabtech, Nacka Sweden) detection antibody was added to each well at a final concentration of 1 μg/ml in PBS. The plates were incubated at room temperature in the dark for 4 h and then washed, as described above. Streptavidin-Alkaline phosphatase (Sigma) was added to each well at a final concentration of 1 μg/ml in PBS and incubated at room temperature in the dark for 2 h. After a final wash with PBS, the substrate, 5-bromo-4-chloro-3-indolyl phosphate and nitro blue tetrazolium, was added to each well and the plates incubated for 30 min at RT. Cells that produced IFN-γ in response to the presence of peptide were detected as purple spots on the nitrocellulose membrane of each well. The spots were counted automatically using a closed-circuit camera (CCD) and ImagePro image analysis software or automated ELISPOT reader (AID, Germany). The T cell precursor frequency for each peptide was based on the total number of PBMC in the well and the number of peptide-specific spots per well, over an average of 3 wells. The number of peptide-specific spots was also calculated by subtracting the negative control values, which consisted of PBMC without peptide (an average of 3 wells), from the test wells.
# To determine whether memory CTL responses against the predictive HCMV potential epitopes could be detected in healthy seropositive virus carriers, we used the ELISPOT assay, which allows rapid identification of CTL epitopes without prolonged in vitro culture.
# We tested epitopes that were restricted for HLA A1, A3, A24, A26, B7, B8, B27, B35 and B44 in ELISPOT assays, to determine whether memory T cell responses could be detected in healthy HLA-matched virus carriers. PBMC from a cohort of healthy virus carriers (Table 2) were stimulated with individual peptides and the cells that produced IFN-γ were detected. CTL epitopes that were restricted through either HLA A1, A3, A24, A26, B7, B8 or B27, were identified.
# Thus, a total of 450 peptides were produced. ELISPOT assays were used to determine whether ex vivo memory T cell responses could be detected in a cohort of 14 healthy virus carriers (Table 2). PBMC were stimulated with individual peptides and the cells that produced IFN-γ were detected.
# [2] = tested on: CD4+ T cells; experiment: CD4+/CD8+ analysis of 20-mer peptides (intracellular IFN-γ staining or depletion ELISPOT)
# Description: (§1) To determine whether a particular 20-mer peptide contained either a CD4^+- or CD8^+-restricted epitope, or both, CD4^+/CD8^+ cell depletion ELISPOT assays were performed on PBMC from healthy virus carriers. For any one experiment, three populations of cells were used: a) CD8^+-depleted PBMC, b) CD4^+-depleted PBMC, and c) non-depleted PBMC. These populations of cells were tested concurrently with the same peptides in a conventional ELISPOT assay as described herein above. DYNABEADS M-450 (Dynal, Oslo, Norway) that bound specifically to CD4^+- or CD8^+ cells were used to perform the depletion essentially according to manufacturers instructions. Beads were washed twice in cold PBS supplemented with 2% FCS using magnetic isolation. The requisite number of cells was resuspended in cold PBS supplemented with 2% FCS, added to the beads and then incubated at 4° C., in the dark, for 30 mins (CD8^+ beads) or 60 mins (CD4^+ beads). Populations were depleted of CD4^+ or CD8^+ cells using magnetic separation. After depletion, the non-attached cells were removed and washed once in growth medium, counted and used in conventional ELISPOT assay. Depleted cells were used at 1.7×10^5 cells per well and the non-depleted population was used at the standard 2.5×10^5 cells per well. After the depletion step, each respective cell population was assessed for the purity of CD4^+ and CD8^+ T cells by three-colour flow cytometry. Samples of depleted cell populations were stained with anti-CD3 antibody directly conjugated to fluorescein isothiocyanate (FITC), anti-CD4 antibody conjugated with phycoerythrin (PE) fluorochrome, and anti-CD8 antibody conjugated with Tricolor fluorochrome (described below). The percent of CD3^+/CD4^+ cells present within the CD8^+-depleted population and the percent of CD3^+/CD8^+ cells present within the CD4^+-depleted populations were assessed on FACSCalibur cytometer (Becton Dickinson). The purity of each population was greater than 90% and the results from the ELISPOT assays are expressed as the percentage of CD4+ or CD8^+ cells within the depleted populations that responded toward each peptide by producing IFN-γ.
# (§2) PBMCs were incubated at 37° C. in RPMI+10% FCS with and without 10 μg/ml peptides for 6 hours. Golgiplug™ (Pharmingen, San Diego, Calif., USA) was added to the samples according to manufacturer's instructions during the second hour of incubation and cells activated with 25 ng/ml phorbol 12-myristidate 13-acetate (PMA; Sigma-Aldrich Co, St. Louis Mo.) and 1 μg/ml iomomycin (Sigma) acted as a positive control. Following the incubation, 1×10^6 cells/sample were washed and resuspended in staining buffer consisting of PBS with GolgiPlug™, 3% FCS and sodium azide. Cells were then stained with FITC conjugated anti-CD3-FITC (UCHT1, Immunotech, Marseille, France), and either Tricolor (TRI) conjugated anti-CD4 (S3.5, Caltag, Burlingame, Calif.) or anti-CD8 (3B5, Caltag) for 30 minutes, 4° C. in the dark. The cells were fixed for 20 min at 4° C. with Cytofix/Cytoperm™ (BD Biosciences) and resuspended in Perm/Wash™ permeabilization buffer (BD Biosciences) according to manufacturers protocol. Fixed cells were stained with phycoerythrin (PE) conjugated anti-human IFN-γ (B27, Pharmingen) for 30 min at 4° C. in the dark. As a negative control, cells were stained with appropriate isotype matched control antibodies. Cells were washed twice in permeabilization buffer and resuspended in staining buffer before analysis by three-colour flow cytometry on a FACSCalibur cytometer (BD Biosciences). All data analysis was carried out using FlowJo software (Tree Star, Inc. San Carlos, CA).
# (§3) When using 20-mer peptides to map epitopes by ELISPOT, it is possible that some responses may be MHC class-II restricted, and not necessarily restricted through HLA class I alleles. It was evident throughout this study that some epitopes identified using ELISPOT could not be confirmed using cytotoxicity analysis. […]
# [3] = tested on: CD8+ T cells; experiment: as above
# Description: as §1, §2, §3
# [4] = tested on: peptide-sensitized autologous PHA blasts or LCLs; design: key to CTL response: Y: Yes; ND: Not detected
# [5] = overlapping 20mer peptides, Table 4
sequence,measurement,setting,value
KAAWSLKELHTHQLCPRSSD (human cytomegalovirus IE2 CTL epitope peptide),ELISPOT Responses (SFC/10^6 PBMC),[1]; donor sixteen,TC(162) SFC/10^6 PBMC
same,Responding cells (% CD4),[2]; donor sixteen,0%
same,Responding cells (% CD8),[3]; donor sixteen,0.08%
TRATKMQVIGDQYVKVYLES,ELISPOT Responses (SFC/10^6 PBMC),[1]; donor alpha,139 SFC/10^6 PBMC
same,ELISPOT Responses (SFC/10^6 PBMC),[1]; donor seven,346 SFC/10^6 PBMC
same,Responding cells (% CD4),[2]; donor seven,0.09%
same,Responding cells (% CD8),[3]; donor seven,0.01%
CKTMQVNNKGIQIIYTRNHE,ELISPOT Responses (SFC/10^6 PBMC),[1]; donor sixteen,TC(154) SFC/10^6 PBMC
same,Responding cells (% CD4),[2]; donor sixteen,0%
same,Responding cells (% CD8),[3]; donor sixteen,0.14%
QEFFWDANDIYRIFAELEGV,ELISPOT Responses (SFC/10^6 PBMC),[1]; donor epsilon,SC(704) SFC/10^6 PBMC
same,ELISPOT Responses (SFC/10^6 PBMC),[1]; donor five,CS(107) SFC/10^6 PBMC
same,ELISPOT Responses (SFC/10^6 PBMC),[1]; donor gamma,295 SFC/10^6 PBMC
same,ELISPOT Responses (SFC/10^6 PBMC),[1]; donor twelve,30 SFC/10^6 PBMC
same,CTL response,[4]; [5],Y
LNIPSINVHHYPSAAERKHR,ELISPOT Responses (SFC/10^6 PBMC),[1]; donor sixteen,222 SFC/10^6 PBMC
same,ELISPOT Responses (SFC/10^6 PBMC),[1]; donor twelve,285 SFC/10^6 PBMC
same,CTL response,[4]; [5],Y
HQVLDEAIKACKTMQVNNKG,ELISPOT Responses (SFC/10^6 PBMC),[1]; donor sixteen,TC(234) SFC/10^6 PBMC
same,Responding cells (% CD4),[2]; donor sixteen,0%
same,Responding cells (% CD8),[3]; donor sixteen,0.18%
VKSEVDAVRCRLGTMCNLAL,ELISPOT Responses (SFC/10^6 PBMC),[1]; donor delta,253 SFC/10^6 PBMC
same,ELISPOT Responses (SFC/10^6 PBMC),[1]; donor seven,320 SFC/10^6 PBMC
same,Responding cells (% CD4),[2]; donor delta,0%
same,Responding cells (% CD8),[3]; donor delta,0.06%
FRNTNRSLEYKNLPFTIPSM,ELISPOT Responses (SFC/10^6 PBMC),[1]; donor sixteen,TC(187) SFC/10^6 PBMC
same,Responding cells (% CD4),[2]; donor sixteen,0%
same,Responding cells (% CD8),[3]; donor sixteen,0.25%
GAAQGDDDVWTSGSDSDEEL,ELISPOT Responses (SFC/10^6 PBMC),[1]; donor eight,JW(248) SFC/10^6 PBMC
same,Responding cells (% CD4),[2]; donor eight,0%
same,Responding cells (% CD8),[3]; donor eight,0.01%
SEPVSEIEEVAPEEEEDGAE (human cytomegalovirus IE1 CTL epitope peptide),ELISPOT Responses (SFC/10^6 PBMC),[1]; donor delta,SE(200) SFC/10^6 PBMC
same,Responding cells (% CD4),[2]; donor delta,0%
same,Responding cells (% CD8),[3]; donor delta,0.097%
FPTKDVAL [reference compound],ELISPOT Responses (SFC/10^6 PBMC),[1]; donor three,MW(445) SFC/10^6 PBMC
same,CTL response,"[4]; predicted epitopes, Table 3",Y
